How the values were obtained:
Human ACC1 = molecular target: T1, Human ACC1 (Homo sapiens, UniProt Q13085); assay: Measurement of ACC1 inhibitory activity (Malonyl-CoA produced, RapidFire-mass spectrometry); type: biochemical; conditions: 10 μM of the test compound; read-out: ACC1 inhibitory rate (%) at 10 μM
T1 construct: His6 (from vector pFAST-BacHTc; purified on Ni-NTA) (N); made in house; host or cells: SF-9 insect cells, recombinant baculovirus BAC-ACC1
Description: (1) Cloning of Human ACC1 Gene and Preparation of Recombinant Baculovirus
Human ACC1 gene was cloned by PCR using a human liver cDNA library (Clontech) as a template and Primer 1 and Primer 2 shown below. Primer 1 and Primer 2 were prepared by adding SalI, NotI restriction enzyme recognition sequences based on the information of the base sequence of human ACC1 gene (Genbank Accession U19822).
PCR was performed using Pyrobest DNA polymerase (TAKARA BIO INC.). The obtained PCR product was cloned to pT7 Blue vector (Novagen) and after confirmation of the base sequence, digested with restriction enzymes SalI and […]. The obtained DNA fragment was inserted into pFAST-BacHTc (Invitrogen) digested with restriction enzymes SalI and […] to give expression plasmid ACC1/pFAST-BacHTc.
Using the expression plasmid ACC1/pFAST-BacHTc and BAC-TO-BAC Baculovirus Expression System (Invitrogen), virus stock BAC-ACC1 of recombinant Baculovirus was prepared.
(2) Preparation of ACC1 Protein
SF-9 cells (Invitrogen) were inoculated to a medium (10 L) for insect cells (Sf-900IISFM medium (Invitrogen) containing 5% fetal bovine serum (Trace), 50 mg/L Gentamicin (Wako Pure Chemical Industries, Ltd.) and 0.1% Pluronic F-68 (Invitrogen)) at 1.0×10^6 cells/mL, and cultured with shaking in Wave Bioreactor (GE Healthcare) at 27° C., 20 rpm, rocking angle 100, oxygen concentration 30%.
On day 2 of the culture, recombinant Baculovirus BAC-ACC1 was added, and the cells were cultured for 3 days. The culture medium was centrifuged at 4000×g for 10 min to give virus-infected cells. The cells were washed with phosphate buffered saline (Invitrogen) and centrifuged under the same conditions. The obtained cells were cryopreserved at −80° C.
The cryopreserved cells were thawed in ice, and suspended in 800 mL of 25 mM HEPES buffer (pH 7.5) containing 10% Glycerol, 0.3 M NaCl, 1 mM EDTA, 25 mM Sodium β-Glycerophosphate and 1 mM Sodium Orthovanadate, and supplemented with Complete Protease Inhibitor (Roche). The obtained suspension was homogenized two times in a polytron homogenizer (Kinematica) at 20,000 rpm for 20 sec. The obtained cell disruption solution was clarified by centrifugation at 186,000×g for 60 min, and the supernatant was passed through Ni-NTA Superflow Cartridges (5 mL) (QUIAGEN). Furthermore, it was washed with 25 mM HEPES buffer (pH 7.5) containing 20 mM Imidazole and 0.3 M NaCl, and eluted with 25 mM HEPES buffer (pH 7.5) containing 250 mM Imidazol and 0.3 M NaCl. The eluate was concentrated by Amicon Ultra-15 (Nihon Millipore K.K.) having a fraction molecular weight of 50K. The obtained concentrate was subjected to gel filtration with 50 mM HEPES buffer (pH 7.5) containing 10 mM MgCl2, 2 mM dithiothreitol, 10 mM tripotassium citrate and 0.3 M NaCl by using HiLoad 26/60 Superdex200 prep grade gel filtration column (GE Healthcare) to give ACC1. The obtained ACC1 was cryopreserved at −80° C.
(3) Measurement of ACC1 Inhibitory Activity
ACC1 obtained in the above-mentioned (2) was diluted with an enzyme reaction buffer (50 mM HEPES (pH 7.5), 10 mM MgCl2, 10 mM Tripottasium Citrate, 2 mM Dithiothreitol, 0.001% Fatty acid free BSA) to a concentration of 0.2 μg/ml, and the mixture was added to each well of a 384 well assay plate by 10 μl. A test compound dissolved in dimethyl sulfoxide (DMSO) was diluted with an enzyme reaction buffer, and the resulting solution (5 μl) was added to each well. The mixture was incubated at room temperature for 60 min. Then, a substrate solution (50 mM KHCO3, 200 μM ATP, 200 μM Acetyl-CoA, 5 μl) was added to each well, and the mixture was reacted at room temperature for 30 min. The reaction was quenched by adding a reaction quenching liquid (1.3% formic acid, 0.2 μM Malonyl-^13C3-CoA) by 60 μL each to the obtained reaction mixtures (test compound addition group).
In addition, a reaction was performed in the same manner as above and without adding the test compound (test compound non-addition group). […]

HCT116 cells = assay: Growth inhibitory activity on HCT116 cell (CellTiter-Glo); type: cell-based; conditions: Homo sapiens, HCT-116, 72 h; test compound 1 μM, 3 days; read-out: HCT116 cell proliferation inhibitory rate (%) at 1 μM
Description: The growth inhibitory activity of the compound on HCT116 cell was evaluated by the following method.
HCT116 cells were seeded in a 384 well blackplate at 900 cells/[…]/well, and maintained in an assay medium (RPMI medium (Wako) containing 2% fetal bovine serum, 50 Unit/mL penicillin and […] streptomycin (Invitrogen)). The next day, a test compound dissolved in dimethyl sulfoxide (DMSO) was diluted with the assay medium, and the obtained compound solution was added by […] to each well of a plate containing HCT116 cells, and incubated at 37° C., 5% CO2 (test compound addition group).
A similar reaction was performed without adding a test compound (test compound non-addition group).
Furthermore, a similar reaction was performed under the conditions without adding HCT116 cell and a test compound (control group).
After 3 days, […] of a CellTiter-Glo reagent (Promega KK) was added to the well, and the mixture was stirred for 10 min. Thereafter, the luminescence value of each well was measured by the EnVision™ multilabel counter (Perkin Elmer Inc.).
The HCT116 cell proliferation inhibitory rate (%) of the test compound was determined by the following calculation formula. (1−(luminescence of test compound addition group−luminescence of control group)÷(luminescence of test compound non-addition group−luminescence of control group))×100
The HCT116 cell proliferation inhibitory rates (%) of the test compound (1 μM) are shown below.

inhibition at 10 µM (Human ACC1): 96%
Structure (SMILES): C[C@@H](COc1cnc(-c2ccc(Oc3cccc(OCC4CC4)c3)cc2)o1)NC(N)=O [Example 82, 1-((2S)-1-((2-(4-(3-(cyclopropylmethoxy)phenoxy)phenyl)-1,3-oxazol-5-yl)oxy)propan-2-yl)urea]
inhibition at 1 µM (HCT116 cells): 33%
